# Test results reported in patent US6608086B2, “Dihydropyridines and new uses thereof” (Synaptic Pharmaceutical Corporation, priority 1993, dated 2003).
# Counter-ions that a name gives are not always drawn. Like-named read-outs stand apart in the source and are kept apart here.
# What was measured:
# α2C receptor = molecular target: T1, α2C receptor (Homo sapiens, UniProt P18825); test: Competition binding, [3H]rauwolscine, human α2C receptor
# T1 construct: host or cells: LM(tk-) cells, line L-α2C
# T1 sequence (P18825 1-462): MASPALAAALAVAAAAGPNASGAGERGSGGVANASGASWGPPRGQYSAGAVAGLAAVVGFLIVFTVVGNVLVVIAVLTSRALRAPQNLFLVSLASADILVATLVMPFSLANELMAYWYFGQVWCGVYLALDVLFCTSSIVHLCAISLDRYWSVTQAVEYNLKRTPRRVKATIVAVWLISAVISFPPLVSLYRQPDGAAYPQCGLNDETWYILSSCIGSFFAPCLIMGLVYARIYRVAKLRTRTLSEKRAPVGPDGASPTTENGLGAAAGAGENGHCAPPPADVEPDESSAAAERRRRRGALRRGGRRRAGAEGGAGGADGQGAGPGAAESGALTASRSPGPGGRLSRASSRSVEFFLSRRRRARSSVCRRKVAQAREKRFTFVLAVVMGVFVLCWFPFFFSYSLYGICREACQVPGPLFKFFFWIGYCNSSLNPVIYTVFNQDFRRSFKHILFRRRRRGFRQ
# How it was run: (§1)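 Lysates of LM(tk−) cells stably expressing human α2A, α2B or α2C receptors in 25 mM glycylglycine pH 7.6. Equilibrium competition against 0.5 nM [3H]rauwolscine, with 10 μM phentolamine defining nonspecific binding. Bound ligand separated by GF/B filtration.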
# α2B receptor = molecular target: T2, α2B receptor (Homo sapiens, UniProt P18089); test: Competition binding, [3H]rauwolscine, human α2B receptor
# T2 construct: host or cells: LM(tk-) cells, line L-NGC-α2B
# T2 sequence (P18089 1-450): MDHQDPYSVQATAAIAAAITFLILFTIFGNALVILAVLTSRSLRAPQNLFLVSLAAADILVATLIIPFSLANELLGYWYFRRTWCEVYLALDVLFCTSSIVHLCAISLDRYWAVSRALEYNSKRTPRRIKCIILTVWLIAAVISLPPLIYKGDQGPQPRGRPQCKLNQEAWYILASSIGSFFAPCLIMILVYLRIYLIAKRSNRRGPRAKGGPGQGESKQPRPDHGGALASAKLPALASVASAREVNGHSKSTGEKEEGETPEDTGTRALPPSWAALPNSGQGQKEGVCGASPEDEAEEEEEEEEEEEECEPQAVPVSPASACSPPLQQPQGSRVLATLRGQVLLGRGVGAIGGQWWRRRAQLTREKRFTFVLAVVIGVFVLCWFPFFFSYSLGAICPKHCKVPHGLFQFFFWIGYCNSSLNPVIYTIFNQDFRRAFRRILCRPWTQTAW
# How it was run: as §1
# L-type calcium channel = molecular target: T3, L-type calcium channel (Rattus norvegicus, UniProt P22002); test: Competition binding of [3H]nitrendipine to membrane fragments of rat cardiac muscle
# T3 construct: membrane fragments of rat cardiac muscle; from tissue; host or cells: rat cardiac muscle membranes
# T3 sequence (P22002 whole entry, other chains not shown, the tested form may be a part): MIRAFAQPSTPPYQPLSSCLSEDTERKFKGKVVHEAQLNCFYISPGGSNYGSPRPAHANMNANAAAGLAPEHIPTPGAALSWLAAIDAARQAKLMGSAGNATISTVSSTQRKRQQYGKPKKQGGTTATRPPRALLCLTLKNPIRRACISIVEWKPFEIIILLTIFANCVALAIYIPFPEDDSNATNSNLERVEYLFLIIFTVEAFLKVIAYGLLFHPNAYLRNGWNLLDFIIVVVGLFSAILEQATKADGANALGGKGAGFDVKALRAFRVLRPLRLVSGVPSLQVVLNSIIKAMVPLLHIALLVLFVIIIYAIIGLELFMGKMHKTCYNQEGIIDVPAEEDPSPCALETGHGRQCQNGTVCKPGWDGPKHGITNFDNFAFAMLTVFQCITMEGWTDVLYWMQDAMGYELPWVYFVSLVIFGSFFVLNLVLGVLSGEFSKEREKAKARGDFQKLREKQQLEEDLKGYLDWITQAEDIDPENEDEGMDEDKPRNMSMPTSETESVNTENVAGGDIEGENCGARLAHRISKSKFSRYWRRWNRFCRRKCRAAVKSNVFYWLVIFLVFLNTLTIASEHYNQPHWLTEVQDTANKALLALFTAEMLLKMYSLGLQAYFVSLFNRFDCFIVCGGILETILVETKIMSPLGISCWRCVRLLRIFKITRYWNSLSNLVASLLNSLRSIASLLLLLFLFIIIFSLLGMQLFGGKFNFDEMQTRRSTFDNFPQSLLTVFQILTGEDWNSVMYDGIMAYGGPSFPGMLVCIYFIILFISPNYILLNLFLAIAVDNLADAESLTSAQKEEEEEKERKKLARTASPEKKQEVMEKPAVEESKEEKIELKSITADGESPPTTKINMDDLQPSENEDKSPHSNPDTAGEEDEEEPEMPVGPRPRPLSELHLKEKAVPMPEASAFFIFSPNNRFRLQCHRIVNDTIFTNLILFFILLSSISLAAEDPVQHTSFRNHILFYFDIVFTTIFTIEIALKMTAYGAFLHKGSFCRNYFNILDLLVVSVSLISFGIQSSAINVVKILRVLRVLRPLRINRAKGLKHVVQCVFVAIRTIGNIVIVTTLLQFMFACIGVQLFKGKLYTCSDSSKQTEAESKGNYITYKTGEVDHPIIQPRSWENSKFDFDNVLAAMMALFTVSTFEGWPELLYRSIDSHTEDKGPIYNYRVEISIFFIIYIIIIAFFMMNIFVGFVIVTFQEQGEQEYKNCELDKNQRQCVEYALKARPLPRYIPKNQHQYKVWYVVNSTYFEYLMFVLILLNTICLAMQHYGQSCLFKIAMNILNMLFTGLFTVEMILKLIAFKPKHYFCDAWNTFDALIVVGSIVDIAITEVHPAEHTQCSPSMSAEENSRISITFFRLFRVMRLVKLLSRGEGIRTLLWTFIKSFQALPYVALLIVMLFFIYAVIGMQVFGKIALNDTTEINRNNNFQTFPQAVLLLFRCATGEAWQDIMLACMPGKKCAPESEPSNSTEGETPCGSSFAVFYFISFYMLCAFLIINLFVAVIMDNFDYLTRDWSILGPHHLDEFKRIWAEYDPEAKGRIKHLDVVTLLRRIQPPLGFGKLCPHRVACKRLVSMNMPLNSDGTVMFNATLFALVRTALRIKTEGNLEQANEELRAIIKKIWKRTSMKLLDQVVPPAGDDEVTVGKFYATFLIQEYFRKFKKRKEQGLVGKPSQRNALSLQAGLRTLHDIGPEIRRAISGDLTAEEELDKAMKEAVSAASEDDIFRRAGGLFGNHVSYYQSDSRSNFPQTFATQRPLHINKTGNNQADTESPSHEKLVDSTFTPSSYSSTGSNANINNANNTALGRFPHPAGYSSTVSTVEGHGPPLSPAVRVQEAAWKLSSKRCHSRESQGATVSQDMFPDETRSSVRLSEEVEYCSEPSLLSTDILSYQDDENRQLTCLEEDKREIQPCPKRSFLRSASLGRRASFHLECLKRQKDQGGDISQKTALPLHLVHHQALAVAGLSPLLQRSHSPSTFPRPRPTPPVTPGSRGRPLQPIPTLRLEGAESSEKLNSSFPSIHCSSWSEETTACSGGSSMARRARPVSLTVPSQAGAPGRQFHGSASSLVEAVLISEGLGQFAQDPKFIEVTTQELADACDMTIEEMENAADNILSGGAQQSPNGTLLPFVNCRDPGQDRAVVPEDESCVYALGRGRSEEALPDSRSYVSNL
# T3 sequence (P54290 25-944 partner limits assumed, other chains not shown): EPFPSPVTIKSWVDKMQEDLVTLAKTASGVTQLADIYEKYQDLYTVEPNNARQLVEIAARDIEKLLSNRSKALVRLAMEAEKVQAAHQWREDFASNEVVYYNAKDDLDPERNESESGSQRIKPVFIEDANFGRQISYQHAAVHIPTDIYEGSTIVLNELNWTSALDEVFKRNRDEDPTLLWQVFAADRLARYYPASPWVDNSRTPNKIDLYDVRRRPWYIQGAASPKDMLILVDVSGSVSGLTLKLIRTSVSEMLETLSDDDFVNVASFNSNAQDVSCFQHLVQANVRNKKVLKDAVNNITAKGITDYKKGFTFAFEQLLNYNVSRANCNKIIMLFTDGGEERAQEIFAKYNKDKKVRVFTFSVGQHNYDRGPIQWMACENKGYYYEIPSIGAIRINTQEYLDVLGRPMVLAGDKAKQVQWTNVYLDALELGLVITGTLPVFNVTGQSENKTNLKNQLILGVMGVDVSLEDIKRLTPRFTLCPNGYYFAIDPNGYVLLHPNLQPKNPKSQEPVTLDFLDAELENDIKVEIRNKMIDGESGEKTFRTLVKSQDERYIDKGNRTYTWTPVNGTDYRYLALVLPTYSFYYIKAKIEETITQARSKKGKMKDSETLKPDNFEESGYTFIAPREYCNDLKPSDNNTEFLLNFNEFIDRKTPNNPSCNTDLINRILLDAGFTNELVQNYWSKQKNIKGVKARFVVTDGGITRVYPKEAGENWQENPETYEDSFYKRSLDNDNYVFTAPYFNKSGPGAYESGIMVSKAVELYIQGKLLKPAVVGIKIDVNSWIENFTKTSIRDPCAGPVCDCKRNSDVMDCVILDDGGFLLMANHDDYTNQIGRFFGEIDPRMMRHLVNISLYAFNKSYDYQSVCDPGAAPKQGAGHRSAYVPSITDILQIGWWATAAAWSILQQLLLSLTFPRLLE
# T3 sequence (P54290 945-1091 partner limits assumed, other chains not shown): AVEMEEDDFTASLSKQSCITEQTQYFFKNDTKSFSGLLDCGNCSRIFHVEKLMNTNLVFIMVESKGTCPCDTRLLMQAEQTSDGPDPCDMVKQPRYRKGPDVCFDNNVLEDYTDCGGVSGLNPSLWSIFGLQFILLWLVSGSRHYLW
# α2A receptor = molecular target: T4, α2A receptor (Homo sapiens, UniProt P08913); test: Competition binding, [3H]rauwolscine, human α2A receptor
# T4 construct: host or cells: LM(tk-) cells, line L-α2A
# T4 sequence (P08913 1-465): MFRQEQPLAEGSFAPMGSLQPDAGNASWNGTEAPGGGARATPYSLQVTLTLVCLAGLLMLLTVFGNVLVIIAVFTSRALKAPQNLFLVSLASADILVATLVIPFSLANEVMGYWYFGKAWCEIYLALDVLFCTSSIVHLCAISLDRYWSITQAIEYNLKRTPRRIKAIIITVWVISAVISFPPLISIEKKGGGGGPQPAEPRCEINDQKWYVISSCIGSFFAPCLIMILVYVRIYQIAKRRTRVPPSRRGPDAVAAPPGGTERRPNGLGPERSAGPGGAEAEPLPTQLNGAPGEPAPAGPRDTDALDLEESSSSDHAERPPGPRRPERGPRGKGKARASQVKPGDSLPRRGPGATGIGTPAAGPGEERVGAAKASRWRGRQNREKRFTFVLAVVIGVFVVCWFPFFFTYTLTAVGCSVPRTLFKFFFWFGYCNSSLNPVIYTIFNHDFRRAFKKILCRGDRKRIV
# How it was run: as §1
# [1] = [3H]rauwolscine, LM(tk-) cell line L-α2C, SEM and n in lines below, read-out: pKi alpha-2 2c (converted)
# [2] = [3H]rauwolscine, LM(tk-) cell line L-NGC-α2B, SEM and n in lines below, read-out: pKi alpha-2 2b (converted)
# [3] = [3H]nitrendipine, rat cardiac muscle membranes, SEM and n in lines below, read-out: pKi Ca (converted)
# [4] = [3H]rauwolscine, LM(tk-) cell line L-α2A, SEM and n in lines below, read-out: pKi alpha-2 2a (converted)
# [5] = pKi alpha-2 2b, [3H]rauwolscine, LM(tk-) cell line L-NGC-α2B, SEM and n in lines below
Compound,Ki (α2C receptor; [1]) [µM],Ki (L-type calcium channel; [3]) [µM],Ki (α2A receptor; [4]) [µM],Ki (α2C receptor; pKi alpha-2 2c) [µM],Ki (α2B receptor; pKi alpha-2 2b) [µM],Ki (L-type calcium channel; pKi Ca) [µM],Ki (α2A receptor) [µM],Ki (α2B receptor; [5]) [µM],also measured
COC(=O)C1=C(C)NC(C)=C(C(=O)NCCCN2CCC(c3ccccc3)(c3ccccc3)CC2)C1c1ccc([N+](=O)[O-])c(C)c1 (stereo not shown) [Example 28],0.631,17.4,2.29,–,–,–,–,–,Ki (α2B receptor; [2]): 1.66 µM
"COC(=O)C1=C(C)NC(C)=C(C(=O)NCCCN2CCC(c3ccccc3)(c3ccccc3)CC2)C1c1ccc([N+](=O)[O-])c(OC)c1 (stereo not shown) [Example 29, 1,4-Dihydro-3-methoxycarbonyl-4-(3-methoxy-4-nitrophenyl)-2,6-dimethyl-5-(N-(3-(4,4-diphenylpiperidin-1-yl)propyl)carboxamido)pyridine]",0.398,13.8,0.692,–,–,–,–,–,Ki (α2B receptor; [2]): 0.631 µM
CC1=C(C#N)C(c2ccc([N+](=O)[O-])cc2)C(C(=O)NCCCN2CCC(c3ccccc3)(c3ccccc3)CC2)=C(C)N1 (stereo not shown) [Example 37],–,–,–,0.575,1.07,1.35,0.708,–,–
"CC1=C(C(=O)NCCCN2CCC(c3ccccc3)(c3ccccc3)CC2)C(c2ccc([N+](=O)[O-])cc2)C2=C(CCCC2=O)N1 (stereo not shown) [Example 40, 1,4,5,6,7,8-Hexahydro-2-methyl-4-(4-nitrophenyl)-5-oxo-3-{N-[3-(4,4-diphenylpiperidin-1-yl)propyl]}carboxamidoquinoline]",0.977,15.8,1.86,–,–,–,–,1.78,–
"COC(=O)C1=C(C)NC(c2ccoc2)=C(C(=O)NCCCN2CCC(c3ccccc3)(c3ccccc3)CC2)C1c1ccc([N+](=O)[O-])cc1 (stereo not shown) [Example 43, 2-(Furan-3-yl)-, 4-dihydro-5-methoxycarbonyl-6-methyl-4-(4-nitrophenyl)-3-(N-(3-(4,4-diphenylpiperidin-1-yl)propyl)carboxamidopyridine, hydrochloride salt]",0.398,18.6,0.661,–,–,–,–,0.437,–
"COC(=O)C1=C(C)NC(C)=C(C(=O)N(C)CCCN2CCC(c3ccccc3)(c3ccccc3)CC2)C1c1ccc([N+](=O)[O-])cc1 (stereo not shown) [Example 46, hydrochloride hemihydrate]",–,–,–,0.245,0.49,7.41,0.676,–,–
"COC(=O)C1=C(C)NC(C)=C(C(=O)NCCN2CCC(c3ccccc3)(c3ccccc3)CC2)C1c1ccc([N+](=O)[O-])cc1 (stereo not shown) [Example 52, 1,4-Dihydro-3-methoxycarbonyl-2,6-dimethyl-4-(4-nitrophenyl)-5-{N-[2-(4,4-diphenylpiperidin-1-yl)ethyl]}carboxamidopyridine hydrochloride hemihydrate]",–,–,–,0.263,0.794,5.13,0.513,–,–
"CC1=C(C(N)=O)C(c2ccc([N+](=O)[O-])cc2)C(C(=O)NCCN2CCC(c3ccccc3)(c3ccccc3)CC2)=C(C)N1 (stereo not shown) [Example 54, 5-Carboxamide-1,4-dihydro-2,6-dimethyl-4-(4-nitrophenyl)-3-{N-[2-(4,4-diphenylpiperidin-1-yl)ethyl]}carboxamidopyridine hydrochloride hydrate]",0.158,58.9,0.468,–,–,–,–,0.302,–
"CC1=C(C(N)=O)C(c2cccc([N+](=O)[O-])c2)C(C(=O)NCCCN2CCC(c3ccccc3)(c3ccccc3)CC2)=C(C)N1 (stereo not shown) [Example 61, 5-Carboxamido-1,4-dihydro-2,6-dimethyl-4-(3-nitrophenyl)-3-{N-[3-(4,4-diphenylpiperidin-1-yl)propyl]}carboxamidopyridine]",0.479,10.2,0.759,–,–,–,–,–,Ki (α2B receptor; [2]): 0.603 µM
CC1=C(C(=O)NCCCN2CCC(c3ccccc3)(c3ccccc3)CC2)C(c2ccc([N+](=O)[O-])cc2)c2c([nH]c(=O)[nH]c2=O)N1 (stereo not shown) [Example 64],0.479,97.7,0.692,–,–,–,–,0.437,–
"CCC1=C(C(=O)NCCCN2CCC(c3ccccc3)(c3ccccc3)CC2)C(c2ccc([N+](=O)[O-])cc2)C(C(=O)OC)=C(C)N1 (stereo not shown) [Example 73, 2-Ethyl-1,4-dihydro-5-methoxycarbonyl-6-methyl-4-(4-nitro) phenyl-3-(N-(3-(4,4-diphenylpiperidin-1-yl)propyl))carboxamidopyridine]",–,–,–,0.275,0.676,0.759,0.794,–,–
"COC(=O)C1=C(C)NC(c2ccccc2)=C(C(=O)NCCCN2CCC(c3ccccc3)(c3ccccc3)CC2)C1c1ccc([N+](=O)[O-])cc1 (stereo not shown) [Example 78, 1,4-Dihydro-5-methoxycarbonyl-6-methyl-4-(4-nitro)phenyl-2-phenyl-3-(N-(3-(4,4-diphenylpiperidin-1-yl)propyl))carboxamidopyridine hydrochloride hydrate]",–,–,–,0.151,0.55,3.16,0.724,–,–
"CCC1=C(C(=O)NCCCN2CCC(c3ccccc3)(c3ccccc3)CC2)C(c2ccc([N+](=O)[O-])cc2)C(C(N)=O)=C(C)N1 (stereo not shown) [Example 81, 5-carboxamido-2-ethyl-1,4-dihydro-6-methyl-4-(4-nitro)phenyl-3-(N-(3-(4,4-diphenylpiperidin-1-yl)propyl))carboxamidopyridine hydrochloride]",0.123,32.4,0.178,–,–,–,–,0.162,–
"CCOC(=O)C1=C(CC(=O)NCCCN2CCC(c3ccccc3)(c3ccccc3)CC2)NC(C)=C(C(=O)OC)C1c1ccc([N+](=O)[O-])cc1 (stereo not shown) [Example 89, 3-Ethoxycarbonyl-1,4-dihydro-5-methoxycarbonyl-6-methyl-4-(4-nitro)phenyl-2-(N-(3-(4,4,-diphenylpiperidin-1-yl)propyl)carboxamido)methylpyridine, fumarate salt]",–,–,–,0.501,1.95,0.813,2.34,–,–
"COC(=O)C1=C(C)N(C)C(C)=C(C(=O)OCCCN2CCC(c3ccccc3)(c3ccccc3)CC2)C1c1ccc([N+](=O)[O-])cc1 (stereo not shown) [Example 92, 1,4-Dihydro-5-methoxycarbonyl-1,2,6-trimethyl-4-(4-nitrophenyl)-3-[3-(4,4-diphenylpiperidin-1-yl)propoxy]carbonylpyridine hydrochloride hydrate]",–,–,–,0.759,0.724,4.17,3.16,–,–
"COc1ccc(C2(c3ccccc3)CCN(CCCNC(=O)C3=C(C)NC(C)=C(C(N)=O)C3c3ccc([N+](=O)[O-])cc3)CC2)cc1 (stereo not shown) [Example 98, 5-Carboxamido-1,4-dihydro-3-{N-[3-(4-(4-methoxyphenyl)-4-phenylpiperidin-1-yl)propyl]}carboxamido-2,6-dimethyl-4-(4-nitrophenyl)pyridine hydrochloride]",–,–,–,–,–,–,–,–,"Ki (α2C receptor; [3H]rauwolscine, human α2C receptor, LM(tk−) cells, read-out: pKi alpha-2 2c (converted)): 0.427 µM; Ki (α2B receptor; pKi alpha-2 2b, [3H]rauwolscine, human α2B receptor, LM(tk−) cells): 0.589 µM; Ki (L-type calcium channel; [3H]nitrendipine, rat cardiac muscle membrane fragments, L-type calcium channel, read-out: pKi Ca (converted)): 1000 µM; Ki (α2A receptor; [3H]rauwolscine, human α2A receptor, LM(tk−) cells, read-out: pKi alpha-2 2a (converted)): 0.355 µM"
